The conditions of the data set: 101.33 kPa, Liquid.

Numbers after ± are expanded uncertainties.

By mass density is commonly meant the mass of a sample divided by its volume. Broadly, the speed of sound is the propagation velocity of pressure waves in the medium. The viscosity is the resistance of a fluid to flow.

As for `CC(O)CO` (stereo unspecified) [1,2-propanediol], the mass density (298.15 K) is given as 1032.75 ± 0.32 kg/m3, the mass density (303.15 K) is 1029.02 ± 0.33 kg/m3, the mass density (308.15 K) was 1025.4 ± 0.34 kg/m3 and the mass density (313.15 K) amounted to 1021.53 ± 0.35 kg/m3. The speed of sound (298.15 K) worked out at 1492 ± 2 m/s and the speed of sound (308.15 K) was found to be 1454 ± 2 m/s. Also, the viscosity is on record as 43.43 ± 0.6 mPa·s (298.15 K) and 24.24 ± 0.47 mPa·s (308.15 K).
Regarding `CC(=O)OCCC(C)C` [3-methylbutyl ethanoate], the mass density runs as follows: (298.15 K) 866.21 ± 0.97 kg/m3; (303.15 K) 861.05 ± 0.99 kg/m3; (308.15 K) 855.85 ± 1 kg/m3; (313.15 K) 852.95 ± 1 kg/m3. Besides, the speed of sound by setting is: (298.15 K) 1195 ± 2 m/s; (308.15 K) 1154 ± 2 m/s. Moreover, the viscosity reads like this: (298.15 K) 0.781 ± 0.013 mPa·s; (308.15 K) 0.747 ± 0.013 mPa·s.
As to `CCCCOC(C)=O` [butyl ethanoate], the mass density is recorded as 876.19 ± 0.94 kg/m3 (298.15 K), 871.27 ± 0.96 kg/m3 (303.15 K), 865.43 ± 0.98 kg/m3 (308.15 K) and 860.48 ± 1 kg/m3 (313.15 K). Moreover, the speed of sound runs as follows: (298.15 K) 1190 ± 2 m/s; (308.15 K) 1150 ± 2 m/s. Also, the viscosity amounted to 0.674 ± 0.012 mPa·s (298.15 K) and 0.594 ± 0.011 mPa·s (308.15 K).
As for `OCCOCCO` [diethylene glycol], the mass density by setting is: (298.15 K) 1113.51 ± 0.32 kg/m3; (303.15 K) 1109.56 ± 0.31 kg/m3; (308.15 K) 1106.22 ± 0.3 kg/m3; (313.15 K) 1103.02 ± 0.3 kg/m3. Also, the speed of sound was found to be 1580 ± 2 m/s (298.15 K) and 1550 ± 2 m/s (308.15 K). Besides, the viscosity runs as follows: (298.15 K) 30.01 ± 0.42 mPa·s; (308.15 K) 16.97 ± 0.33 mPa·s.
For `CCOC(C)=O` [ethyl acetate], the mass density reads like this: (298.15 K) 894.55 ± 0.88 kg/m3; (303.15 K) 888.48 ± 0.9 kg/m3; (308.15 K) 882.5 ± 0.92 kg/m3; (313.15 K) 875.97 ± 0.94 kg/m3. In addition, the speed of sound is 1138 ± 2 m/s (298.15 K) and 1095 ± 2 m/s (308.15 K). Moreover, the viscosity runs as follows: (298.15 K) 0.428 ± 0.008 mPa·s; (308.15 K) 0.387 ± 0.008 mPa·s.
Take `COC(C)=O` [methyl ethanoate]: the mass density by setting is: (298.15 K) 926.8 ± 0.78 kg/m3; (303.15 K) 919.7 ± 0.8 kg/m3; (308.15 K) 915.22 ± 0.81 kg/m3; (313.15 K) 908.33 ± 0.84 kg/m3. For the same molecule, the speed of sound came to 1150 ± 2 m/s (298.15 K) and 1103 ± 2 m/s (308.15 K). The viscosity was determined as 0.384 ± 0.008 mPa·s (298.15 K) and 0.351 ± 0.007 mPa·s (308.15 K).
As for `OCCOCCOCCO` [triethylene glycol], the mass density (298.15 K) is 1119.59 ± 0.75 kg/m3, the mass density (303.15 K) was determined as 1115.88 ± 0.69 kg/m3, the mass density (308.15 K) turned out to be 1111.96 ± 0.63 kg/m3 and the mass density (313.15 K) worked out at 1109.53 ± 0.6 kg/m3. Besides, the speed of sound reads like this: (298.15 K) 1612 ± 2 m/s; (308.15 K) 1586 ± 2 m/s. In addition, the viscosity (298.15 K) worked out at 34.4 ± 0.46 mPa·s and the viscosity (308.15 K) amounted to 21.31 ± 0.35 mPa·s.

The record behind these values is the NIST ThermoML archive (doi:10.1021/je0340248).
